The results in this text go back to ChEMBL document CHEMBL1142108, “Carbamidocyclophanes A-E, chlorinated paracyclophanes with cytotoxic and antibiotic activity from the Vietnamese cyanobacterium Nostoc sp” (J Nat Prod, 2007).

Each structure is given as a SMILES string. In brackets after ≈: the same amount, converted by molar mass.

In assay [1] the test system is Staphylococcus aureus. The assay is described as follows: Antibacterial activity against Staphylococcus aureus ATCC 6538. Type of assay: functional.
A short description of assay [2]: Cytotoxicity against human F1 cells after 48 hrs. Type of assay: cell-based. As to conditions: F1, 48 h.
In assay [3] the test system is MCF7. The assay is described as follows: Cytotoxicity against MCF7 cells after 48 hrs. Type of assay: cell-based. The settings on record: Homo sapiens, MCF7, 48 h.

In turn, `C[C@H]1CCCCC(CCCC(Cl)Cl)c2c(O)cc(cc2O)[C@H](OC(N)=O)[C@@H](C)CCCCC(CCCC(Cl)Cl)c2c(O)cc(cc2O)[C@@H]1OC(N)=O` (some centres undefined) [CARBAMIDOCYCLOPHANE A] returned an MIC in assay [1] of 100 µM (≈ 80.9 µg/mL). Further, the IC50 in assay [2] stood at 3.3 µM; in assay [3] it was 0.86 µM.
`C[C@H]1CCCCC(CCCCCl)c2c(O)cc(cc2O)[C@H](OC(N)=O)[C@@H](C)CCCCC(CCCC(Cl)Cl)c2c(O)cc(cc2O)[C@@H]1OC(N)=O` (some centres undefined) [CARBAMIDOCYCLOPHANE B] yielded an MIC in assay [1] of 40 µM (≈ 31 µg/mL). For the same molecule, the IC50 in assay [2] came out at 4.2 µM; in assay [3] it was 1.8 µM.
In assay [1], `CCCCC1CCCC[C@H](C)[C@@H](OC(N)=O)c2cc(O)c(c(O)c2)C(CCCC(Cl)Cl)CCCC[C@H](C)[C@@H](OC(N)=O)c2cc(O)c1c(O)c2` (some centres undefined) [CARBAMIDOCYCLOPHANE C] yielded an MIC of 60 µM (≈ 44.4 µg/mL). The IC50 in assay [2] was found to be 5.1 µM; in assay [3] it was 2.2 µM.

The MIC is the lowest concentration found to suppress growth. A low value points to inhibition by little substance. One may read the IC50 as the concentration at which inhibition is half-maximal. Low readings indicate greater potency, high ones weaker potency.
